Residues, ends and D or L forms follow the SMILES beside them.
The molecules below were run against HLA-DRA1/B1*0901, soluble recombinant protein (human) (assay: not given).

| Molecule | Kd |
| --- | --- |
| TT 503–515 peptide, unmodified | 0.073 µM |

Each molecule was assayed against HLA-DR0901 protein (Homo sapiens, UniProt P01903+P01911, A100R/A103E/D57H/D86V/F55Y/F60I/F76Y/I96F/K127E/L162R/M171V/P40D/Q125H/Q99R/R33Q/R42F/S133A/S66N/T210M/V115G/W38K/Y107V/Y59G/Y89S) (assay: Peptide binding competition assay, DR0901).

| Molecule | Kd |
| --- | --- |
| CC[C@H](C)[C@H](NC(=O)[C@H](CCCCN)NC(=O)[C@H](CC(=O)O)NC(=O)[C@H](CC(C)C)NC(=O)[C@H](Cc1ccc(O)cc1)NC(=O)[C@H](Cc1ccc(O)cc1)NC(=O)[C@H](CC(N)=O)NC(=O)[C@H](Cc1ccccc1)NC(=O)[C@H](CC(N)=O)NC(=O)[C@@H](N)CC(C)C)C(=O)N[C@H](C(=O)N[C@H](C(=O)N[C@@H](CC(=O)O)C(=O)O)C(C)C)[C@@H](C)CC [LNFNYYLDKIIVD] (H-LNFNYYLDKIIVD-OH) | 3.4 µM |
| CC[C@H](C)[C@H](NC(=O)[C@H](CCCCN)NC(=O)[C@H](CC(=O)O)NC(=O)[C@H](CC(C)C)NC(=O)[C@H](CO)NC(=O)[C@H](Cc1ccc(O)cc1)NC(=O)[C@H](CC(N)=O)NC(=O)[C@H](CC(C)C)NC(=O)[C@H](CC(N)=O)NC(=O)[C@@H](N)CC(C)C)C(=O)N[C@H](C(=O)N[C@H](C(=O)N[C@@H](CC(=O)O)C(=O)O)C(C)C)[C@@H](C)CC [LNLNYSLDKIIVD] (H-LNLNYSLDKIIVD-OH) | 0.45 ± 0.08 µM |
| CC[C@H](C)[C@H](NC(=O)[C@H](CCCCN)NC(=O)[C@H](CC(=O)O)NC(=O)[C@H](CC(C)C)NC(=O)[C@H](CO)NC(=O)[C@H](Cc1ccc(O)cc1)NC(=O)[C@H](CC(N)=O)NC(=O)[C@H](CCSC)NC(=O)[C@H](CC(N)=O)NC(=O)[C@@H](N)CC(C)C)C(=O)N[C@H](C(=O)N[C@H](C(=O)N[C@@H](CC(=O)O)C(=O)O)C(C)C)[C@@H](C)CC [LNMNYSLDKIIVD] (H-LNMNYSLDKIIVD-OH) | 0.6 ± 0.15 µM |
| CC[C@H](C)[C@H](NC(=O)[C@H](CCCCN)NC(=O)[C@H](CC(=O)O)NC(=O)[C@H](CC(C)C)NC(=O)[C@H](CO)NC(=O)[C@H](Cc1ccc(O)cc1)NC(=O)[C@H](CC(N)=O)NC(=O)[C@@H](NC(=O)[C@H](CC(N)=O)NC(=O)[C@@H](N)CC(C)C)C(C)C)C(=O)N[C@H](C(=O)N[C@H](C(=O)N[C@@H](CC(=O)O)C(=O)O)C(C)C)[C@@H](C)CC [LNVNYSLDKIIVD] (H-LNVNYSLDKIIVD-OH) | 0.44 ± 0.13 µM |
| CC[C@H](C)[C@H](NC(=O)[C@H](CCCCN)NC(=O)[C@H](CC(=O)O)NC(=O)[C@H](CC(C)C)NC(=O)[C@H](CO)NC(=O)[C@H](Cc1ccc(O)cc1)NC(=O)[C@H](CC(N)=O)NC(=O)[C@H](Cc1ccc(O)cc1)NC(=O)[C@H](CC(N)=O)NC(=O)[C@@H](N)CC(C)C)C(=O)N[C@H](C(=O)N[C@H](C(=O)N[C@@H](CC(=O)O)C(=O)O)C(C)C)[C@@H](C)CC [LNYNYSLDKIIVD] (H-LNYNYSLDKIIVD-OH) | 0.113 ± 0.04 µM |

— article PMC4061985 (Journal of immunology (Baltimore, Md. : 1950), 2009)
